Assay results published in patent US20140315786A1, “USE OF INTRACELLULAR ENZYMES FOR THE RELEASE OF COVALENTLY LINKED BIOACTIVES” (Catabasis Pharmaceuticals, Inc., priority 2011, published 2014).

Tested on: IL-1β
Test: IL-1β transcript levels in LPS-stimulated RAW264.7 macrophages
Assay type: cell-based
Details: Mus musculus; RAW264.7, LPS 100 ng/ml; linked bioactive
Description: RAW264.7 macrophages were seeded at a density of 100,000 cells/well in a 96-well plate in DMEM supplemented with 10% FBS and penicillin:streptomycin. 16 hours later, medium was aspirated and replaced with 90 μL/well of serum-free DMEM. Linked bioactives were brought up in 100% ethanol to a concentration of 100 mM and then diluted 1:100 in 100% FBS for a stock solution consisting of 1 mM compound and 1% ethanol. These stock solutions were then diluted 1:10 in FBS supplemented with 1% ethanol to generate a 100 μM of the linked bioactives. 10 μL was then added to the RAW246.7 cells to generate final concentrations 10 μM of the linked bioactives or 10 μM each bioactive, along with vehicle only control. The linked bioactives were allowed to pre-incubate for 2 hours before stimulation of 100 ng/ml LPS (10 μL of 1 μg/ml LPS was added to each well). Following 3 hours of LPS stimulation, cells were washed once in 1×PBS, aspirated dry, and flash frozen in liquid nitrogen. RNA was then isolated and converted to cDNA using the Cells to cDNA kit (AMBION®) according to the manufacturer's protocol. IL-1β transcript levels were then measured using Taqman primer/probe assay sets (APPLIED BIOSYSTEMS®), normalized to GAPDH using the deltaCt method, and the data expressed relative to vehicle only control.

IC50: 10 µM
Structure (SMILES): CC/C=C\C/C=C\C/C=C\C/C=C\C/C=C\C/C=C\CCC(=O)N[C@@H](C)C(=O)O[C@H](C)[C@H](NC(=O)CC/C=C\C/C=C\C/C=C\C/C=C\C/C=C\C/C=C\CC)C(=O)OC [VI-2, (2S,3R)-2-((4Z,7Z,10Z,13Z,16Z,19Z)-docosa-4,7,10,13,16,19-hexaenoylamino)-3-[(S)-2-((4Z,7Z,10Z,13Z,16Z,19Z)-docosa-4,7,10,13,16,19-hexaenoylamino)-propionyloxy]-butyric acid methyl ester]
